{"source": "patent US4377592A", "about": "“Antiarrhythmic activity of cetiedil” (Innothera, priority 1979, dated 1983)", "key": {"[1]": {"tested_on": "chloroform-induced ventricular fibrillation", "assay": "Chloroform-induced ventricular fibrillation in the mouse", "type": "in vivo", "excerpt": "In this technique first described by LAWSON, J. W. in J. Pharm. Exp. Ther. 1968, 160, 22 and Vargaftig, B. B. et al in Eur. J. Pharmacol. 1969, 6, 49, the inhalation of chloroform vapour produced in the mouse apnea followed by ventricular fibrillation.\nThe mechanism of this technique remains unknown."}, "[2]": {"tested_on": "polymorphous arrhythmias induced by adrenaline petrol-ether", "assay": "Polymorphous arrhythmias induced in the anaesthetised guinea-pig by adrenaline and petrol ether", "type": "in vivo", "excerpt": "Adrenaline in high dosage is a powerful arrhythmogenic stimulus to a myocardia induced by petrol ether, as recognized in the guinea-pig by LE MARECHAL J., Thesis Doct."}, "[3]": {"tested_on": "ventricular fibrillation induced by CaCl2", "assay": "Calcium (CaCl2) induced ventricular fibrillation in the anaesthetized rat, Malinow's technique", "type": "in vivo", "procedure": "According to MALINOW, M. R., et coll. Acta. Physiol Latino. Americ.\nUsing the anaesthetized rat, 200 mg/kg of CaCl2 was injected two minutes after the substances to be tested. The ECG was recorded continuously in lead II."}, "[4]": {"tested_on": "ventricular tachycardia induced by ouabaine", "assay": "Ouabain induced ventricular tachycardia in the anesthetized guinea-pig", "type": "in vivo", "settings": "5 and 10 mg/kg", "procedure": "This test is used to determine the dose of ouabain administered by slow infusion necessary to obtain the appearance of ventricular extrasystoles. The animal used was the guinea pig and the substances were administered intravenously."}, "[5]": {"tested_on": "ventricular tachycardia induced by Ouabain", "assay": "Ouabain induced ventricular tachycardia in the dog (Lucchesi and Hardman)", "type": "in vivo", "settings": "at the average effective dose", "excerpt": "The method used is that of […] and HARDMAN, J. Pharmacol. Exp. Ther. 1961, 132, 372-381. Ventricular tachycardia was obtained by the sequential administration of Ouabain until a permanent ventricular tachycardia developed. Following observation of the effect of the substance, the reappearance of this ventricular tachycardia following the injection of insulin was confirmed, thereby showing the persistence within the heart of a toxic dose of Ouabain (Average dose of Ouabain 71.25 γ kg IV)."}, "[6]": {"tested_on": "isolated guinea-pig atrial", "assay": "Stimulated isolated guinea pig atrial (technique of Dawes)", "type": "cell-based", "excerpt": "(§1) The technique of DAWES (modified by ALLIES ET AL.) was used with the isolated guinea-pig atrial, and the technique of DUCHENE-MARULLAZ, J. Pharmacol. Paris, 1970, 1, 539, in the anaesthetized dog. This method is used to study the permeability of atrio-ventricular conduction, and thus more precisely conduction at the level of Tawara's nod."}, "[7]": {"tested_on": "atrio-ventricular conduction", "assay": "Atrio-ventricular conduction in the anaesthetized dog (Duchene-Marullaz)", "type": "in vivo", "excerpt": "as §1"}, "[8]": {"tested_on": "rabbit cornea oculo-palpebral reflex", "type": "in vivo", "settings": "for TOTAL DEGREE OF ANAESTHESIA FOR 60 minutes: rabbit cornea, total 13 no anaesthesia, 1300 complete", "excerpt": "For the purpose of this study, the classical technique of REGNIER J., Thesis Doct. […] This consists of repeating touching of the rabbit cornea until an oculo-palpebral reflex is obtained. It should be noted that […], in common with the reference substances, was used in the form of the HCl Salt."}, "[9]": {"tested_on": "rat aortic fragments", "assay": "Contraction of rat aorta fragment induced by potassium depolarisation", "type": "cell-based", "settings": "for pD'2: pD'2 = pDx + log (x - 1)", "procedure": "(§2) Fragments of aorta removed from rats are immersed in survival fluid in the presence of carbogene at 37° C. By modifying the ionic equilibrium of the survival medium, it was possible to study the effects of […] on contraction of the aortic fragments induced by depolarisation with potassium or calcium."}, "[10]": {"tested_on": "rat aortic fragments", "assay": "Competitive antagonism of calcium dose/effect curve of contraction of rat aortic fragment", "type": "cell-based", "settings": "competitive inhibition versus calcium", "procedure": "as §2"}, "[11]": {"assay": "Tolerance of normal healthy adult male subjects to cetiedil given by intravenous infusion", "type": "in vivo, human"}, "[12]": {"settings": "cited from earlier work"}, "[13]": {"assay": "in vivo", "settings": "mouse, iv"}}, "note": "Where “and” joins values, the source holds several entries; their conditions need not be identical. Equal entries are not always repeated. Where two headings read alike, the source gives them in different places.", "data": [{"smiles": "O=C(OCCN1CCCCCC1)C(c1ccsc1)C1CCCCC1", "note": "(stereo not drawn) [citrate monohydrate of α-cyclohexyl-3-thiopheneaceticacid 2-(hexahydro-1H-azepin-1-yl)ethyl ester]", "values": [{"measurement": "activity relative to propranolol", "setting": "[1]; chloroform induced fibrillation in the mouse", "value": "ten times less powerful than propranolol"}, {"measurement": "ED50", "setting": "[1]; mouse, chloroform vapour inhalation, IP, read-out: ED50", "value": "~50", "unit": "mg/kg"}, {"measurement": "ED50", "setting": "[2]; Cavia porcellus, ip, guinea-pig, urethane 1.2 g/kg IP, substance 5 minutes before intoxication, read-out: ED50 (dose decreasing by half the duration of the disturbances)", "value": "~1.2", "unit": "mg/kg"}, {"measurement": "index I = LD50 IV/ED50", "setting": "[2]; Table 1, adrenaline petrol-ether, guinea-pig ED50, mouse LD50", "value": 47.50}, {"measurement": "activity relative to the reference β-blocker", "setting": "[2]; guinea pig, adrenaline and petrol-ether", "value": "three times less active than the reference β-blocker"}, {"measurement": "index LD50/AD50 (ventricular fibrillation)", "setting": "[3]; Table 2", "value": "18,69"}, {"measurement": "index LD50/AD50 (death)", "setting": "[3]; Table 3", "value": 16.29}, {"measurement": "AD 50 protection against ventricular fibrillation", "setting": "[3]; anaesthetized rat, CaCl2 200 mg/kg IV two minutes after substance", "value": "3,50 mg/kg/IV"}, {"measurement": "ED50", "setting": "[3]; anaesthetized rat, CaCl2 200 mg/kg IV two minutes after substance, read-out: AD 50 protection against ventricular fibrillation", "value": 3.5, "unit": "mg/kg"}, {"measurement": "threshold before the development of cardiac disturbances", "setting": "[4]", "value": "significant increase"}, {"measurement": "duration of return to sinus rhythm", "setting": "[5]", "value": "more than 30 min"}, {"measurement": "% DECREASE SPONTANEOUS RATE", "setting": "[6]; concentration 10^-5", "value": 26, "unit": "%"}, {"measurement": "% DECREASE m.f.s. (maximum frequency followed by the atrial)", "setting": "[6]; concentration 10^-5", "value": 27, "unit": "%"}, {"measurement": "% DECREASE SPONTANEOUS RATE", "setting": "[6]; concentration 10^-6", "value": 6, "unit": "%"}, {"measurement": "% DECREASE m.f.s. (maximum frequency followed by the atrial)", "setting": "[6]; concentration 10^-6", "value": 14, "unit": "%"}, {"measurement": "% DECREASE SPONTANEOUS RATE", "setting": "[6]; concentration 10^-7", "value": 9, "unit": "%"}, {"measurement": "% DECREASE m.f.s. (maximum frequency followed by the atrial)", "setting": "[6]; concentration 10^-7", "value": 6, "unit": "%"}, {"measurement": "negative bathmotropic effect", "setting": "[6]; concentration of 1.10^-6", "value": "identical to that of Quinidine and less than that of Propranolol"}, {"measurement": "effect on atrio-ventricular conduction after denervation", "setting": "[7]; anaesthetized dog, denervated", "value": "not altered by denervation"}, {"measurement": "effect on atrio-ventricular conduction", "setting": "[7]; anaesthetized dog, intact", "value": "significant depression which was proportional to the dose injected"}, {"measurement": "chronotropic effect", "setting": "[7]; dog", "value": "absence of any significant negative chronotropic effects"}, {"measurement": "effects on contractile force of the myocardia", "setting": "[7]; dog, doses of 2.5 and 5 mg/kg", "value": "slight"}, {"measurement": "local anaesthetic effects relative to cocaine", "setting": "[8]; rabbit", "value": "twice as great as those of cocaine"}, {"measurement": "TOTAL DEGREE OF ANAESTHESIA FOR 60 minutes", "setting": "[8]; 0.25 g./100, HCl salt", "value": 393.2}, {"measurement": "TOTAL DEGREE OF ANAESTHESIA FOR 60 minutes", "setting": "[8]; 0.50 g./100, HCl salt", "value": 798.8}, {"measurement": "duration of complete local anaesthesia", "setting": "[8]; rabbit, local instillation, concentration of 0.5%", "value": 15, "unit": "min"}, {"measurement": "IC50", "setting": "[9]; in the presence of 1.26 mM of calcium, read-out: concentration reducing by half the force of contraction", "value": 6, "unit": "µM"}, {"measurement": "pD'2 (mean)", "setting": "[9]; mean ± SD, potassium depolarisation", "value": "5.23 ± 0.05 and 5.23"}, {"measurement": "x", "setting": "[9]; single experiment, cetiedil concentration 1 (pDx 6.00)", "value": 1.16}, {"measurement": "pD'2", "setting": "[9]; single experiment, cetiedil concentration 1", "value": 5.20}, {"measurement": "x", "setting": "[9]; single experiments, cetiedil concentration 5 (pDx 5.30)", "value": "1.50 and 2.17"}, {"measurement": "pD'2", "setting": "[9]; single experiments, cetiedil concentration 5", "value": "5.00 and 5.37"}, {"measurement": "x", "setting": "[9]; single experiments, cetiedil concentration 10 (pDx 5.00)", "value": "2.78 and 3.24 and 2.70"}, {"measurement": "pD'2", "setting": "[9]; single experiments, cetiedil concentration 10", "value": "5.25 and 5.35 and 5.23"}, {"measurement": "pA2", "setting": "[10]", "value": 6.27}, {"measurement": "overall safety conclusion", "setting": "[11]; 0.359 mg/kg infused 9 times over a 10 day-period", "value": "safe drug"}, {"measurement": "abnormalities in electrocardiograms, blood chemistry, hematologic profiles, urine analyses", "setting": "[11]; 10 volunteers, 0.359 mg/kg, 9 infusions over 10 days", "value": "no significant abnormalities"}, {"measurement": "subjects with doubtful elevation in SGOT value", "setting": "[11]; after completion of study-period, of 10", "value": 2, "unit": "subjects"}, {"measurement": "average duration of side effects after completion of infusion", "setting": "[11]; after the first infusion", "value": 72.9, "unit": "min"}, {"measurement": "subjects complaining of side effects", "setting": "[11]; after the first infusion", "value": 7, "unit": "subjects"}, {"measurement": "duration of side effects", "setting": "[11]; after the ninth infusion", "value": 15, "unit": "min"}, {"measurement": "subjects complaining of side effects", "setting": "[11]; after the ninth infusion", "value": 3, "unit": "subjects"}, {"measurement": "K+ level", "setting": "[11]; another subject, after completing the study", "value": "slight reduction"}, {"measurement": "Ca++ level", "setting": "[11]; one subject, after completing the study", "value": "minimal elevation"}, {"measurement": "systemic blood pressure", "setting": "[11]; one to four hours after infusion", "value": "slightly decreased"}, {"measurement": "Pulse rate", "setting": "[11]; usually one hour after the infusion", "value": "slightly reduced"}, {"measurement": "share of circulating radio-activity due to a metabolite", "setting": "[12]; 5 minutes after intravenous injection of 0.25 mg", "value": "half"}, {"measurement": "digestive absorbtion", "setting": "[12]; C14", "value": "excellent"}, {"measurement": "Rectal absorption", "setting": "[12]; in vivo", "value": "relatively low, and above all, very slow"}, {"measurement": "Biliary excretion", "setting": "[12]; individual with a biliary drain", "value": "no more than 11%"}, {"measurement": "terminal half-life of plasma radio-activity", "setting": "[12]; man, 0.25 mg intravenous, C14", "value": "approximately five"}, {"measurement": "terminal half-life of urinary excretion", "setting": "[12]; man, C14", "value": "~26", "unit": "h"}, {"measurement": "radio-activity excreted in the urines", "setting": "[12]; man, intact biliary circulation", "value": "approximately 65%"}, {"measurement": "plasma radioactivity following oral administration", "setting": "[12]; man, versus intravenous injection", "value": "markedly higher than after intravenous injection"}, {"measurement": "urinary excretion", "setting": "[12]; patient who had undergone surgery", "value": 42, "unit": "%"}, {"measurement": "radio-active transformation substance in urine", "setting": "[12]; urine passed 1 hour following the injection", "value": 100, "unit": "%"}, {"measurement": "LD50", "setting": "[13]", "value": 57, "unit": "mg/kg"}]}]}
